pIC50: −log10 of the molar value. Like-named read-outs stand apart in the source and are kept apart here.
Tests used:
[1] = molecular target: bacterial PDF (peptide deformylase), enzyme from E. coli (Escherichia coli, UniProt P0A6K3); experiment: Bacterial peptide deformylase (PDF) assay, enzyme from E. coli; format: biochemical
Experimental: (§1) The IC50 value of a compound of the invention as a bacterial PDF inhibitor was determined using the following assay.
(§2) Assay buffer (pH 7.2): 0.1 M MOPS pH was adjusted to 7.2 with NaOH, containing 0.25 M NaCl, 100 microgram/mL catalase and 1 mg/mL BSA.
(§3) Enzyme mix: 670 ng/mL of enzyme (to finally have 50 ng of enzyme per well).
(§4) Substrate: 10 mM f-Met-Ala was made up from 200 mM f-Met-Ala in methanol with assay buffer.
(§5) TNBS solution: Freshly dilute 1 M TNBS stock solution to 1:10 with water.
(§6) Buffer C: 0.5 M borate buffer adjusted to pH 9.5 with NaOH.
(§7) Buffer D: 0.2 ml of freshly prepared 0.5 M Na2SO3 was mixed with 9.8 mL of 0.5M NaH2PO4.
(§8) Inhibitor solution: 2 mM Sodium 4-(hydroxymercurio) benzoate in assay buffer.
(§9) The assay was performed in a 96 Microtiter plate containing test compound. To each well containing test compound mix was added 75 microliter of enzyme mix from E. coli followed, by the addition of 25 microliter of substrate mix. The resulting mix was incubated for 30 minutes at room temperature with shaking. TNBS solution (50 microliter/well) was added and the resulting mixture was incubated for 15 minutes under shaking. Buffer C was then added (20 microliter/well). After incubating at room temperature for 15 minutes under shaking, buffer D was added (50 microliter/well). The optical […] was then measured at 420 nm, thereby determining the IC50 value.

[2] = molecular target: T1, bacterial PDF (peptide deformylase), enzyme from S. aureus (Staphylococcus aureus, UniProt P68826); experiment: Bacterial peptide deformylase (PDF) assay, enzyme from S. aureus; format: biochemical
T1 sequence (P68826 1-183): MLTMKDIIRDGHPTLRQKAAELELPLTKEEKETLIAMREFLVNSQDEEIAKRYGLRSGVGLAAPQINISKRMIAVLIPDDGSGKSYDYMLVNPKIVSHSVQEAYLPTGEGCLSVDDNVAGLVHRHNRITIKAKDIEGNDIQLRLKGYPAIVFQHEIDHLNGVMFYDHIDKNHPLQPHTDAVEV
Experimental: as §1, §2, §3, §4, §5, §6, §7, §8, §9
The assay was repeated using enzyme mix from S. aureus.

[3] = PDF enzyme from S. aureus, substrate f-Met-Ala, TNBS readout at 420 nm, read-out: IC50 (enzyme from S. aureus)

Chain of bacterial PDF (peptide deformylase), enzyme from E. coli (P0A6K3 whole entry): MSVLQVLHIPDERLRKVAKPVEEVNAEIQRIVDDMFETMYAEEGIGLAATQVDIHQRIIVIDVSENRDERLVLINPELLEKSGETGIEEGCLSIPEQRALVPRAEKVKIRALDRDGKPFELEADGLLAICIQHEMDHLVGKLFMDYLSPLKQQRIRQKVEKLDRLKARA

CCN1CC(CC(=O)NO)S(=O)(=O)c2ccc(C(=O)NCc3cccc([N+](=O)[O-])c3)cc21 (stereo not drawn) [Example 19, 4-Ethyl-2-hydroxycarbamoylmethyl-1,1-dioxo-1,2,3,4-tetrahydro-1λ^6-benzo[1,4]thiazine-6-carboxylic acid 3-nitro-benzylamide]
pIC50 [1]: 5.48
pIC50 [2, 3]: 4.92

CCN1CC(CC(=O)NO)S(=O)(=O)c2ccc(C(=O)NCc3ccccc3Br)cc21 (stereo not drawn) [Example 15, 4-Ethyl-2-hydroxycarbamoylmethyl-1,1-dioxo-1,2,3,4-tetrahydro-1λ^6-benzo[1,4]thiazine-6-carboxylic acid 2-bromo-benzylamide]
pIC50 [1]: 4.70
pIC50 [2, 3]: 5.02

CCN1CC(CC(=O)NO)S(=O)(=O)c2ccccc21 (stereo not drawn) [Example 4, 2-(4-Ethyl-1,1-dioxo-1,2,3,4-tetrahydro-1λ^6-benzo[1,4]thiazin-2-yl)-N-hydroxy-acetamide]
pIC50 [1]: 5.85
pIC50 [2, 3]: 5.70

CCN1CC(CC(=O)NO)S(=O)(=O)c2ccc(C(=O)NCc3ccc(OC(F)(F)F)cc3)cc21 (stereo not drawn) [Example 26, 4-Ethyl-2-hydroxycarbamoylmethyl-1,1-dioxo-1,2,3,4-tetrahydro-1λ^6-benzo[1,4]thiazine-6-carboxylic acid 4-trifluoromethoxybenzylamide]
pIC50 [1]: 5.96
pIC50 [2, 3]: 5.30

CCCN1CC(CC(=O)NO)S(=O)(=O)c2ccccc21 (stereo not drawn) [Example 6, 2-(1,1-Dioxo-4-propyl-1,2,3,4-tetrahydro-1λ^6-benzo[1,4]thiazin-2-yl)-N-hydroxy-acetamide]
pIC50 [1]: 5.80
pIC50 [2, 3]: 5.72

CCN1CC(CC(=O)NO)Sc2ccccc21 (stereo not drawn) [Example 3, 2-(4-Ethyl-3,4-dihydro-2H-benzo[1,4]thiazin-2-yl)-N-hydroxy-acetamide]
pIC50 [1]: 5.59
pIC50 [2, 3]: 5.25

CCN1CC(CC(=O)NO)S(=O)(=O)c2ccc(C(=O)Nc3cc[nH]n3)cc21 (stereo not drawn) [Example 30, 4-Ethyl-2-hydroxycarbamoylmethyl-1,1-dioxo-1,2,3,4-tetrahydro-1λ^6-benzo[1,4]thiazine-6-carboxylic acid (1H-pyrazol-3-yl)-amide]
pIC50 [1]: 4.94
pIC50 [2, 3]: 4.51

O=C(CC1CNc2ccccc2S1)NO (stereo not drawn) [Example 1, 2-(3,4-Dihydro-2H-benzo[1,4]thiazin-2-yl)-N-hydroxy-acetamide]
pIC50 [1]: 4.25
pIC50 [2, 3]: 4.42

O=C(CC1CN(CC2CCCC2)c2ccccc2S1(=O)=O)NO (stereo not drawn) [Example 37, 2-(4-Cyclopentylmethyl-1,1-dioxo-1,2,3,4-tetrahydro-1λ^6-benzo[1,4]thiazin-2-yl)-N-hydroxy-acetamide]
pIC50 [1]: 4.95
pIC50 [2, 3]: 4.86

CCCCN1CC(CC(=O)NO)Sc2ccccc21 (stereo not drawn) [Example 7, 2-(4-Butyl-3,4-dihydro-2H-benzo[1,4]thiazin-2-yl)-N-hydroxy-acetamide]
pIC50 [1]: 4.66
pIC50 [2, 3]: 4.45

CCN1CC(CC(=O)NO)S(=O)(=O)c2ccc(C(=O)Nc3nccs3)cc21 (stereo not drawn) [Example 31, 4-Ethyl-2-hydroxycarbamoylmethyl-1,1-dioxo-1,2,3,4-tetrahydro-1λ^6-benzo[1,4]thiazine-6-carboxylic acid thiazol-2-ylamide]
pIC50 [1]: 4.91
pIC50 [2, 3]: 4.68

O=C(CC1CN(CC2CC2)c2ccccc2S1(=O)=O)NO (stereo not drawn) [Example 35]
pIC50 [1]: 5.68
pIC50 [2, 3]: 5.32

CCN1CC(CC(=O)NO)S(=O)(=O)c2ccc(C(=O)Nc3cc(-c4cccs4)n[nH]3)cc21 (stereo not drawn) [Example 33, 4-Ethyl-2-hydroxycarbamoylmethyl-1,1-dioxo-1,2,3,4-tetrahydro-1λ^6-benzo[1,4]thiazine-6-carboxylic acid (5-thiophen-2-yl-2H-pyrazol-3-yl)-amide]
pIC50 [1]: 6.05
pIC50 [2, 3]: 5.52

CCN1CC(CC(=O)NO)S(=O)(=O)c2ccc(C(=O)NC3CC4CCC(C3)N4C)cc21 (stereo not drawn) [Example 34]
pIC50 ([1]; PDF enzyme from E. coli, substrate f-Met-Ala, TNBS readout at 420 nm, read-out: IC50 (enzyme from E. coli)): 4.86
pIC50 [2]: 5.22

CCN1CC(CC(=O)NO)S(=O)(=O)c2ccc(C(=O)NCc3ccc(N(C)C)cc3)cc21 (stereo not drawn) [Example 27, 4-Ethyl-2-hydroxycarbamoylmethyl-1,1-dioxo-1,2,3,4-tetrahydro-1λ^6-benzo[1,4]thiazine-6-carboxylic acid 4-dimethylaminobenzylamide]
pIC50 [1]: 5.03
pIC50 [2, 3]: 4.74

CCN1CC(CC(=O)NO)S(=O)(=O)c2ccc(C(=O)NCc3ccc(C(F)(F)F)cc3)cc21 (stereo not drawn) [Example 25, 4-Ethyl-2-hydroxycarbamoylmethyl-1,1-dioxo-1,2,3,4-tetrahydro-1λ^6-benzo[1,4]thiazine-6-carboxylic acid 4-trifluoromethyl-benzylamide]
pIC50 [2, 3]: 5.38

CCN1CC(CC(=O)NO)S(=O)(=O)c2ccc(C(=O)NCc3ccc(Br)cc3)cc21 (stereo not drawn) [Example 17, 4-Ethyl-2-hydroxycarbamoylmethyl-1,1-dioxo-1,2,3,4-tetrahydro-1λ^6-benzo[1,4]-thiazine-6-carboxylic acid 4-bromo-benzylamide]
pIC50 [1]: 5.82
pIC50 [2, 3]: 5.47

O=C(CC1CN(Cc2ccccc2)c2ccccc2S1(=O)=O)NO (stereo not drawn) [Example 9, 2-(4-Benzyl-1,1-dioxo-1,2,3,4-tetrahydro-1λ^6-benzo[1,4]thiazin-2-yl)-N-hydroxy-acetamide]
pIC50 [1]: 4.67
pIC50 [2, 3]: 4.67

CCN1CC(CC(=O)NO)S(=O)(=O)c2ccc(C(=O)NCc3cccc(Br)c3)cc21 (stereo not drawn) [Example 16, 4-Ethyl-2-hydroxycarbamoylmethyl-1,1-dioxo-1,2,3,4-tetrahydro-1λ^6-benzo[1,4]thiazine-6-carboxylic acid 3-bromo-benzylamide]
pIC50 [1]: 5.70
pIC50 [2, 3]: 5.01

O=C(CC1CN(Cc2cccc(F)c2)c2ccccc2S1(=O)=O)NO (stereo not drawn) [Example 10, 2-[4-(3-Fluoro-benzyl)-1,1-dioxo-1,2,3,4-tetrahydro-1λ^6-benzo[1,4]thiazin-2-yl]-N-hydroxy-acetamide]
pIC50 [1]: 4.56
pIC50 [2, 3]: 4.55

CCN1CC(CC(=O)NO)S(=O)(=O)c2ccc(C(=O)NCc3ccc(F)cc3)cc21 (stereo not drawn) [Example 14, 4-Ethyl-2-hydroxycarbamoylmethyl-1,1-dioxo-1,2,3,4-tetrahydro-1λ^6-benzo[1,4]thiazine-6-carboxylic acid 4-fluoro-benzylamide]
pIC50 [1]: 4.98
pIC50 [2, 3]: 5.00

CCN1CC(CC(=O)NO)S(=O)(=O)c2ccc(C(=O)NCc3ccncc3)cc21 (stereo not drawn) [Example 28, 4-Ethyl-2-hydroxycarbamoylmethyl-1,1-dioxo-1,2,3,4-tetrahydro-1λ^6-benzo[1,4]thiazine-6-carboxylic acid (pyridin-4-ylmethyl)-amide]
pIC50 [1]: < 3.70
pIC50 [2, 3]: 4.15

CCN1CC(CC(=O)NO)S(=O)(=O)c2ccc(C(=O)NCc3ccccc3[N+](=O)[O-])cc21 (stereo not drawn) [Example 18, 4-Ethyl-2-hydroxycarbamoylmethyl-1,1-dioxo-1,2,3,4-tetrahydro-1λ^6-benzo[1,4]thiazine-6-carboxylic acid 2-nitro-benzylamide]
pIC50 [1]: 4.75
pIC50 [2, 3]: 4.95

CCN1CC(CC(=O)NO)S(=O)(=O)c2ccc(C(=O)NCc3ccccc3F)cc21 (stereo not drawn) [Example 12, 4-Ethyl-2-hydroxycarbamoylmethyl-1,1-dioxo-1,2,3,4-tetrahydro-1λ^6-benzo[1,4]thiazine-6-carboxylic acid 2-fluoro-benzylamide]
pIC50 [1]: 4.97
pIC50 [2, 3]: 4.43

CCCCN1CC(CC(=O)NO)S(=O)(=O)c2ccccc21 (stereo not drawn) [Example 8, 2-(4-Butyl-1,1-dioxo-1,2,3,4-tetrahydro-1λ^6-benzo[1,4]thiazin-2-yl)-N-hydroxy-acetamide]
pIC50 [1]: 5.06
pIC50 [2, 3]: 5.09

CCN1CC(CC(=O)NO)S(=O)(=O)c2ccc(C(=O)NCc3ccccc3OC)cc21 (stereo not drawn) [Example 21, 4-Ethyl-2-hydroxycarbamoylmethyl-1,1-dioxo-1,2,3,4-tetrahydro-1λ^6-benzo[1,4]thiazine-6-carboxylic acid 2-methoxy-benzylamide]
pIC50 [1]: 5.82
pIC50 [2, 3]: 5.82

CCN1CC(CC(=O)NO)S(=O)(=O)c2ccc(C(=O)NCc3ccccc3)cc21 (stereo not drawn) [Example 11, 4-Ethyl-2-hydroxycarbamoylmethyl-1,1-dioxo-1,2,3,4-tetrahydro-1λ^6-benzo[1,4]thiazine-6-carboxylic acid benzylamide]
pIC50 [1]: 4.75
pIC50 [2, 3]: 5.05

O=C(CC1CN(CC2CCCCC2)c2ccccc2S1(=O)=O)NO (stereo not drawn) [Example 38, 2-(4-Cyclohexylmethyl-1,1-dioxo-1,2,3,4-tetrahydro-1λ^6-benzo[1,4]thiazin-2-yl)-N-hydroxy-acetamide]
pIC50 [1]: 4.48
pIC50 [2, 3]: 4.74

CCN1CC(CC(=O)NO)S(=O)(=O)c2ccc(C(=O)NCc3cccc(C(F)(F)F)c3)cc21 (stereo not drawn) [Example 24, 4-Ethyl-2-hydroxycarbamoylmethyl-1,1-dioxo-1,2,3,4-tetrahydro-1λ^6-benzo[1,4]thiazine-6-carboxylic acid 3-trifluoromethyl-benzylamide]
pIC50 [1]: 5.70
pIC50 [2, 3]: 5.08
